In PubChem BioAssay (NCI):
“And” between values parts separate entries of the source, which are not always exact repeats. Equal entries are not always repeated.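 All cell lines were grown in 96-well plates and treated with compound for 48 hours. Abbreviation: GI50, concentration required for 50% inhibition of growth. TGI: concentration producing complete growth inhibition.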

Legend:
Assay in all cases: DTP human tumour cell line panel, 48 h
[1] = system: 786-0 renal
[2] = system: A498 renal
[3] = system: A549 NSCLC
[4] = system: ACHN renal
[5] = system: BT-549 breast
[6] = system: CAKI-1 renal
[7] = system: CCRF-CEM leukemia
[8] = system: COLO 205 colon
[9] = system: DU-145 prostate
[10] = system: EKVX NSCLC
[11] = system: HCC-2998 colon
[12] = system: HCT-116 colon
[13] = system: HCT-15 colon
[14] = system: HL-60(TB) leukemia
[15] = system: HOP-62 NSCLC
[16] = system: HOP-92 NSCLC
[17] = system: HS 578T breast
[18] = system: HT29 colon
[19] = system: IGROV1 ovarian
[20] = system: K-562 leukemia
[21] = system: KM12 colon
[22] = system: LOX IMVI melanoma
[23] = system: M14 melanoma
[24] = system: MALME-3M melanoma
[25] = system: MCF7 breast
[26] = system: MDA-MB-231 breast
[27] = system: MDA-MB-435
[28] = system: MDA-N
[29] = system: MOLT-4 leukemia
[30] = system: NCI-H226 lung
[31] = system: NCI-H23 lung
[32] = system: NCI-H460 lung
[33] = system: NCI-H522 lung
[34] = system: NCI/ADR-RES ovarian
[35] = system: OVCAR-3 ovarian
[36] = system: OVCAR-4 ovarian
[37] = system: OVCAR-5 ovarian
[38] = system: OVCAR-8 ovarian
[39] = system: PC-3 prostate
[40] = system: RPMI-8226 leukemia
[41] = system: RXF 393 renal
[42] = system: SF-268 CNS
[43] = system: SF-295 CNS
[44] = system: SF-539 CNS
[45] = system: SK-MEL-2 melanoma
[46] = system: SK-MEL-28 melanoma
[47] = system: SK-MEL-5 melanoma
[48] = system: SK-OV-3 ovarian
[49] = system: SN12C renal
[50] = system: SNB-19 CNS
[51] = system: SNB-75 CNS
[52] = system: SR leukemia
[53] = system: SW-620 colon
[54] = system: T-47D breast
[55] = system: TK-10 renal
[56] = system: U251 CNS
[57] = system: UACC-257 melanoma
[58] = system: UACC-62 melanoma
[59] = system: UO-31 renal

CC(=O)O[C@H]1CC[C@H]2[C@@H]3CCC4C(C)=NNC(=O)C4[C@H]3CC[C@]12C (some centres undefined)
TGI [1]: > 100 µM | TGI [2]: > 100 µM | TGI [3]: > 100 µM | TGI [4]: > 100 µM | TGI [5]: > 69.7 µM | TGI [6]: > 100 µM | TGI [7]: > 100 µM | TGI [8]: > 100 µM | TGI [9]: > 100 µM | TGI [10]: > 100 µM | TGI [11]: > 100 µM | TGI [12]: > 100 µM | TGI [13]: > 100 µM | TGI [14]: > 100 µM | TGI [15]: 57.6 µM | TGI [16]: > 100 µM | TGI [17]: 64.2 µM | TGI [18]: > 100 µM | TGI [19]: > 79.4 µM | TGI [20]: > 100 µM | TGI [21]: > 100 µM | TGI [22]: > 75.4 µM | TGI [23]: > 100 µM | TGI [24]: > 100 µM | TGI [25]: > 100 µM | TGI [26]: > 82.8 µM | TGI [27]: > 100 µM | TGI [28]: > 100 µM | TGI [29]: > 100 µM | TGI [30]: > 100 µM | TGI [31]: > 100 µM | TGI [32]: > 100 µM | TGI [33]: > 86.7 µM | TGI [34]: > 100 µM | TGI [35]: > 100 µM | TGI [36]: > 100 µM | TGI [37]: > 100 µM | TGI [38]: > 100 µM | TGI [39]: > 100 µM | TGI [40]: > 100 µM | TGI [41]: > 100 µM | TGI [42]: > 100 µM | TGI [43]: > 100 µM | TGI [44]: > 100 µM | TGI [45]: > 100 µM | TGI [46]: > 100 µM | TGI [47]: > 100 µM | TGI [48]: > 100 µM | TGI [49]: > 100 µM | TGI [50]: > 82.9 µM | TGI [51]: 33.7 µM | TGI [52]: > 100 µM | TGI [53]: > 100 µM | TGI [54]: > 100 µM | TGI [55]: > 100 µM | TGI [56]: > 100 µM | TGI [57]: > 100 µM | TGI [58]: > 100 µM | TGI [59]: > 100 µM

O=C1NC(=O)C(Cc2ccccc2)(c2cccnc2)N1 (centres undefined)
TGI [1]: > 100 µM | TGI [2]: > 100 µM | TGI [3]: > 100 µM | TGI [4]: > 100 µM | TGI [5]: > 100 µM | TGI [6]: > 100 µM | TGI [7]: > 100 µM | TGI [8]: > 100 µM | TGI [9]: > 100 µM | TGI [10]: > 100 µM | TGI [11]: > 100 µM | TGI [12]: > 100 µM | TGI [13]: > 100 µM | TGI [14]: > 100 µM | TGI [15]: > 100 µM | TGI [16]: > 100 µM | TGI [17]: > 100 µM | TGI [18]: > 100 µM | TGI [19]: > 100 µM | TGI [20]: > 100 µM | TGI [21]: > 100 µM | TGI [22]: > 100 µM | TGI [23]: > 100 µM | TGI [24]: > 100 µM | TGI [25]: > 100 µM | TGI [26]: > 100 µM | TGI [27]: > 100 µM | TGI [28]: > 100 µM | TGI [29]: > 100 µM | TGI [30]: > 100 µM | TGI [31]: > 100 µM | TGI [32]: > 100 µM | TGI [33]: > 100 µM | TGI [34]: > 100 µM | TGI [35]: > 100 µM | TGI [36]: > 100 µM | TGI [37]: > 100 µM | TGI [38]: > 100 µM | TGI [39]: > 100 µM | TGI [40]: > 100 µM | TGI [41]: > 100 µM | TGI [42]: > 100 µM | TGI [43]: > 100 µM | TGI [44]: > 100 µM | TGI [45]: > 100 µM | TGI [46]: > 100 µM | TGI [47]: > 100 µM | TGI [48]: > 100 µM | TGI [49]: > 100 µM | TGI [50]: > 100 µM | TGI [51]: > 100 µM | TGI [52]: > 100 µM | TGI [53]: > 100 µM | TGI [54]: > 100 µM | TGI [55]: > 100 µM | TGI [56]: > 100 µM | TGI [57]: > 100 µM | TGI [58]: > 100 µM | TGI [59]: > 100 µM

CO[C@@H]1/C=C\C=C(/C)C(=O)NC2=CC(=O)C(NCCN(C)C)=C(C[C@@H](C)C[C@@H](OC)[C@@H](O)[C@H](C)/C=C(\C)[C@H]1OC(N)=O)C2=O
GI50 [1]: 0.0589 µM | TGI [1]: 15 µM and 26.9 µM | TGI [2]: 28.3 µM | TGI [3]: 13.3 µM and 18.8 µM | GI50 [4]: < 0.0167 µM and 0.0737 µM | GI50 [5]: 0.88 µM and 1.53 µM | TGI [5]: 14.6 µM and 21.1 µM | GI50 [6]: 0.485 µM and 1.38 µM | TGI [6]: 12.2 µM and 29.2 µM | GI50 [7]: 0.0344 µM | TGI [7]: 3.23 µM and 9.76 µM | TGI [8]: 0.171 µM | GI50 [9]: < 0.01 µM | TGI [9]: 5.13 µM and 12.4 µM | GI50 [10]: 0.641 µM and 0.145 µM | TGI [10]: 11.1 µM and 7.59 µM | GI50 [11]: 0.0197 µM | GI50 [12]: 0.0192 µM | TGI [12]: 1.52 µM and 2.3 µM | TGI [13]: 4.06 µM and 10.9 µM | GI50 [14]: < 0.0106 µM and 0.0715 µM | TGI [14]: 1.4 µM and 0.734 µM | GI50 [15]: 0.0859 µM | TGI [15]: 17 µM and 19.1 µM | GI50 [16]: 0.966 µM and 0.175 µM | TGI [16]: 11.7 µM and 2.1 µM | TGI [17]: 38.3 µM and 76.3 µM | GI50 [18]: < 0.01 µM | TGI [18]: 4.54 µM and 3.96 µM | GI50 [19]: 0.0164 µM | TGI [19]: 1.85 µM and 1.99 µM | GI50 [20]: 0.0158 µM | TGI [20]: 3.22 µM and 13.6 µM | GI50 [21]: 0.0147 µM | TGI [21]: 1.02 µM and 0.448 µM | GI50 [22]: < 0.013 µM | TGI [22]: 0.379 µM | GI50 [23]: 0.0125 µM | TGI [23]: 6.51 µM and 4.99 µM | TGI [24]: 3.73 µM and 0.562 µM | TGI [25]: 1.88 µM and 3.8 µM | GI50 [26]: 0.019 µM and 0.018 µM | TGI [26]: 7.26 µM and 2.24 µM | GI50 [27]: < 0.0124 µM | TGI [27]: 3.1 µM and 1.32 µM | TGI [28]: 1.92 µM and 2.18 µM | GI50 [29]: 0.0444 µM | TGI [29]: 1.02 µM and 8.39 µM | TGI [30]: 31.2 µM and 12.4 µM | GI50 [31]: < 0.0125 µM | TGI [31]: 7.14 µM | GI50 [32]: < 0.0117 µM | TGI [32]: 3.61 µM and 3.76 µM | GI50 [33]: < 0.01 µM and 0.0228 µM | TGI [33]: 0.709 µM and 3.57 µM | GI50 [34]: 5.55 µM and 17.7 µM | TGI [34]: 29.6 µM and 62.7 µM | GI50 [35]: 0.068 µM and 0.0369 µM | TGI [35]: 6.26 µM and 2.39 µM | TGI [36]: 4.76 µM and 4.52 µM | GI50 [37]: 0.406 µM and 0.11 µM | TGI [37]: 9.23 µM and 7.52 µM | GI50 [38]: 0.0216 µM | TGI [38]: 2.95 µM and 6.36 µM | GI50 [39]: < 0.01 µM and 0.0264 µM | TGI [39]: 33.6 µM and 17.8 µM | TGI [40]: 19.6 µM and 6.32 µM | TGI [41]: 11.8 µM and 10.8 µM | GI50 [42]: 1.19 µM and 0.209 µM | TGI [42]: 16.5 µM and 16.2 µM | GI50 [43]: 0.0278 µM | TGI [43]: 17.2 µM and 11.7 µM | GI50 [44]: < 0.01 µM and 0.0319 µM | TGI [44]: 11.6 µM and 3.38 µM | TGI [45]: 21.3 µM and 12.3 µM | TGI [46]: > 100 µM and 32.4 µM | GI50 [47]: < 0.01 µM and 0.0238 µM | TGI [47]: 3.12 µM and 1.12 µM | TGI [48]: > 37.4 µM and 6.86 µM | GI50 [49]: 0.0135 µM | TGI [49]: 2.78 µM and 3.81 µM | TGI [50]: 7.99 µM and 15.5 µM | GI50 [51]: < 0.0235 µM | TGI [51]: 0.977 µM and 6.15 µM | TGI [52]: 10.6 µM | GI50 [53]: < 0.01 µM and 0.0487 µM | TGI [53]: 20.6 µM | GI50 [54]: 0.03 µM and 0.0574 µM | TGI [54]: 3.31 µM and 4.48 µM | TGI [55]: 24 µM and 34.7 µM | GI50 [56]: 0.0144 µM | TGI [56]: 8.18 µM | GI50 [57]: 0.0196 µM | TGI [57]: 2.06 µM and 1.27 µM | TGI [58]: 1.25 µM and 3.87 µM | TGI [59]: 14 µM and 26.7 µM
